From patent publication US20230399661A1, “SHUTTLE AGENT PEPTIDES OF MINIMAL LENGTH AND VARIANTS THEREOF ADAPTED FOR TRANSDUCTION OF CAS9-RNP AND OTHER NUCLEOPROTEIN CARGOS” (priority 2020, published 2023)

Test system: HeLa cells
Test: Large-scale screening for propidium iodide (PI) transduction activity, flow cytometry
Assay type: cell-based, Human
Details: data not shown
Method: HeLa cells were plated (20 000 cells/well) in a 96 well-plate the day prior to the experiment in DMEM containing 10% FBS. Each delivery mix comprising a synthetic peptide shuttle agent (10-30 μM) and the propidium iodide (PI) (10 μg/mL) were prepared and completed to 50 μL with PBS. Cells were washed once with PBS and the shuttle/PI mix was added to the cells and incubated for one minute. Then 100 μL DMEM containing 10% FBS was added to the mix. Cells were then immediately washed once with PBS and incubated in DMEM containing 10% FBS for two hours. Cells were then analyzed by flow cytometry. […]
Due to the large number of peptides screened, negative controls were performed in parallel for each experimental batch and included a “no treatment” (NT) control in which the cells were not exposed to shuttle peptide or cargo, as well as a “cargo alone” control in which cells were exposed to the cargo in the absence of shuttle agent. […] Mean PI or GFP-NLS delivery score was calculated by multiplying the mean fluorescence intensity (of at least duplicate samples) measured for the viable PI+ or GFP+ cells by the mean percentage of viable PI+ or GFP+ cells, divided by 100,000 for GFP delivery or by 10,000 for PI delivery. […]

FSD174 Scramble: negative control peptide known to have low or no GFP transduction activity (LGRSGRIKIGGWSALASRARQARGLKIWTQGRL; FSD174 Scramble)
PI transduction efficiency relative to cargo alone negative control: lower transduction efficiencies for PI
